The source of these data is patent US9260439B2, “Dihydropyrrolopyrimidine derivatives” (PFIZER INC., priority 2014, dated 2016).

The term Ki denotes a dissociation constant, usually derived from enzyme kinetics or from competition with a known ligand. High values mean a looser hold on the target, low ones a stronger hold on the target.

Bounds are passed on as bounds.

In this experiment the target is truncated PI3Kα (p110α/iSH2 p85α) (Homo sapiens (Human), UniProt P42336). In words: PI3KA_Act fluorescence polarization kinase assay (Ki). Format: biochemical. The settings on record: 1 mM ATP. In a few lines: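 p110α/iSH2 p85α (0.5 nM) was reacted with 30 μM sonicated PIP2 in 50 mM HEPES pH 7.4, 150 mM NaCl, 5 mM MgCl2, 1 mM DTT and 0.05% CHAPS for 30 min at room temperature, then stopped with EDTA. PIP3 was detected by fluorescence polarization (GST-Grp1 PH domain/TAMRA-PIP3), and Ki came from a Morrison tight-binding fit.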
Chain of truncated PI3Kα (p110α/iSH2 p85α) (P42336 whole entry, the tested form may be a part): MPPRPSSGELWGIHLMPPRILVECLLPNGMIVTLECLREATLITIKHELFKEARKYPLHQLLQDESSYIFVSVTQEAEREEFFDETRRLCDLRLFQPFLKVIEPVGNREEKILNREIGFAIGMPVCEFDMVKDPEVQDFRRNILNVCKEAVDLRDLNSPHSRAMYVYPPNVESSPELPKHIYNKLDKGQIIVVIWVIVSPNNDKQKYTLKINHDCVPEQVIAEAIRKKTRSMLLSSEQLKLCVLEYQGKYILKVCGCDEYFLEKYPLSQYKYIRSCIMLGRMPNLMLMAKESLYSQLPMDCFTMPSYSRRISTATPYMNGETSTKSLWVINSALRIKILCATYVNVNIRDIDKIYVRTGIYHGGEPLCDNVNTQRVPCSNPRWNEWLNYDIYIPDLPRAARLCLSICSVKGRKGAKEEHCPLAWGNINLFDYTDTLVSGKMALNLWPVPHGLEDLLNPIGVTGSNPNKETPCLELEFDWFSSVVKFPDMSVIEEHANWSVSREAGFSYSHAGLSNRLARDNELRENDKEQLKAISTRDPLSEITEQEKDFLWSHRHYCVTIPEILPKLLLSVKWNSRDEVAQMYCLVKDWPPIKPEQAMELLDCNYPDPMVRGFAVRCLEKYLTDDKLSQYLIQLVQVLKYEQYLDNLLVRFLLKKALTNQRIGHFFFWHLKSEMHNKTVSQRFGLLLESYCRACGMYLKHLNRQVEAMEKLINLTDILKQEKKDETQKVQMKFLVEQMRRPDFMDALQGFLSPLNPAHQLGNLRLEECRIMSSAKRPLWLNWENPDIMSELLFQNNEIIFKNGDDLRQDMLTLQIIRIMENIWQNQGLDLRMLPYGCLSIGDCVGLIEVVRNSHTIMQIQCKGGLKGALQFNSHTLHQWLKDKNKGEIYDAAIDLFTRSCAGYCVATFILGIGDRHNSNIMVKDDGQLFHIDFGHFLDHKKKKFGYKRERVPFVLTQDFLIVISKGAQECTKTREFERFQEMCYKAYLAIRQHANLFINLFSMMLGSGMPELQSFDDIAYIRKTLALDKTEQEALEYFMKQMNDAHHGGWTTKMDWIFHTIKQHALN
For orientation: Polarisation of emitted light reports the rotation of a fluorescent probe.
On to `C[C@@]1(N2CCc3c(-c4cnc(N)nc4)nc(N4CCOCC4)nc32)CCN(C(=O)CC2CC2)C1` [Example 324, 1-{(3R)-3-[4-(2-aminopyrimidin-5-yl)-2-(morpholin-4-yl)-5,6-dihydro-7H-pyrrolo[2,3-d]pyrimidin-7-yl]-3-methylpyrrolidin-1-yl}-2-cyclopropylethanone], for which the “PI3KA_Act Ki” value worked out at 198 pM.
Same read-out and setting: the value for `C[C@H](N)C(=O)N1CC[C@](C)(N2CCc3c(-c4cnc(N)nc4)nc(N4CCOC[C@@H]4C)nc32)C1.Cl` [Example 475, (2S)-2-amino-1-[(3S)-3-{4-(2-aminopyrimidin-5-yl)-2-[(3S)-3-methylmorpholin-4-yl]-5,6-dihydro-7H-pyrrolo[2,3-d]pyrimidin-7-yl}-3-methylpyrrolidin-1-yl]propan-1-one hydrochloride] was 68 pM; that for `CNS(=O)(=O)N1CC(C)(N2CCc3c(-c4cnc(N)nc4)nc(N4CCOCC4)nc32)C1` [Example 190] was 40 pM; that for `C[C@H]1COCCN1c1nc(-c2cnc(N)nc2)c2c(n1)N([C@@]1(C)CCN(C(=O)C(C)(C)CO)C1)CC2.Cl` [Example 474, 1-[(3S)-3-{4-(2-aminopyrimidin-5-yl)-2-[(3S)-3-methylmorpholin-4-yl]-5,6-dihydro-7H-pyrrolo[2,3-d]pyrimidin-7-yl}-3-methylpyrrolidin-1-yl]-3-hydroxy-2,2-dimethylpropan-1-one hydrochloride] was 45 pM.
As to `CC(C)(C)OC(=O)N1C[C@@H](N2CCc3c(-c4cnc(N)nc4)nc(N4CCOCC4)nc32)[C@@H](F)C1` [Example 408, tert-butyl (3R,4S)-3-[4-(2-aminopyrimidin-5-yl)-2-(morpholin-4-yl)-5,6-dihydro-7H-pyrrolo[2,3-d]pyrimidin-7-yl]-4-fluoropyrrolidine-1-carboxylate], the Ki came out at 1080 pM.
Turning to `CC1(C(=O)N2CC[C@](C)(N3CCc4c(-c5cnc(N)nc5)nc(N5CCOCC5)nc43)C2)CC1` [Example 329, {(3S)-3-[4-(2-aminopyrimidin-5-yl)-2-(morpholin-4-yl)-5,6-dihydro-7H-pyrrolo[2,3-d]pyrimidin-7-yl]-3-methylpyrrolidin-1-yl}(1-methylcyclopropyl) methanone], the “PI3KA_Act Ki” value is <18 pM.
As to `COCC(=O)N1CC[C@](C)(N2CCc3c(-c4cnc(N)nc4)nc(N4CCOCC4)nc32)C1` [Example 279, 1-{(3S)-3-[4-(2-aminopyrimidin-5-yl)-2-(morpholin-4-yl)-5,6-dihydro-7H-pyrrolo[2,3-d]pyrimidin-7-yl]-3-methylpyrrolidin-1-yl}-2-methoxyethanone], the “PI3KA_Act Ki” value stood at 27 pM.
On to `CC(C(=O)N1CC[C@](C)(N2CCc3c(-c4cnc(N)nc4)nc(N4CCOCC4)nc32)C1)N(C)C` (stereo partly drawn) [Example 302, 1-{(3S)-3-[4-(2-aminopyrimidin-5-yl)-2-(morpholin-4-yl)-5,6-dihydro-7H-pyrrolo[2,3-d]pyrimidin-7-yl]-3-methylpyrrolidin-1-yl}-2-(dimethylamino) propan-1-one], for which the “PI3KA_Act Ki” value stood at 38 pM.
The same measure, in the same setting: next, `CC(C)C(=O)N1CC[C@](C)(N2CCc3c(-c4cnc(N)nc4)nc(N4CCOCC4)nc32)C1` [Example 262, 1-{(3S)-3-[4-(2-aminopyrimidin-5-yl)-2-(morpholin-4-yl)-5,6-dihydro-7H-pyrrolo[2,3-d]pyrimidin-7-yl]-3-methylpyrrolidin-1-yl}-2-methylpropan-1-one]: <18 pM; `C[C@@H]1CNC[C@@]1(C)N1CCc2c(-c3cnc(N)nc3)nc(N3CCOC[C@@H]3C)nc21.Cl` [Example 467, 5-{7-[(3S,4R)-3,4-dimethylpyrrolidin-3-yl]-2-[(3S)-3-methylmorpholin-4-yl]-6,7-dihydro-5H-pyrrolo[2,3-d]pyrimidin-4-yl}pyrimidin-2-amine hydrochloride]: 106 pM.
With `COC(=O)N1CC(C)(N2CCc3c(-c4cnc(N)nc4)nc(N4CCOCC4)nc32)C1` [Example 247, methyl 3-[4-(2-aminopyrimidin-5-yl)-2-(morpholin-4-yl)-5,6-dihydro-7H-pyrrolo[2,3-d]pyrimidin-7-yl]-3-methylazetidine-1-carboxylate], the “PI3KA_Act Ki” value was 55 pM.
Same read-out and setting: next, `CC1(N2CCc3c(-c4cnc(N)nc4)nc(N4CCOCC4)nc32)CN(S(=O)(=O)C2CC2)C1` [Example 197]: 40 pM; `C[C@H]1COCCN1c1nc(-c2cnc(N)nc2)c2c(n1)N([C@H]1C[C@@H](N)C1)CC2.Cl` [Example 442, 5-{7-(cis-3-aminocyclobutyl)-2-[(3S)-3-methylmorpholin-4-yl]-6,7-dihydro-5H-pyrrolo[2,3-d]pyrimidin-4-yl}pyrimidin-2-amine hydrochloride]: 1349 pM; `C[C@H]1COCCN1c1nc(-c2cnc(N)nc2)c2c(n1)N(C1CN(S(=O)(=O)c3cnn(C)c3)C1)CC2` [Example 160]: 221 pM.
Turning to `C[C@]1(N2CCc3c(-c4cnc(N)nc4)nc(N4CCOCC4)nc32)CCN(C(=O)[C@@H](N)C2CC2)C1.Cl` [Example 296, (2S)-2-amino-1-{(3S)-3-[4-(2-aminopyrimidin-5-yl)-2-(morpholin-4-yl)-5,6-dihydro-7H-pyrrolo[2,3-d]pyrimidin-7-yl]-3-methylpyrrolidin-1-yl}-2-cyclopropylethanone hydrochloride], the “PI3KA_Act Ki” value is <18 pM.
Molecule `CS(=O)(=O)N1C[C@H]2C[C@@H]1[C@@H]2N1CCc2c(-c3cnc(N)nc3)nc(N3CCOCC3)nc21` (single isomer, unassigned) [Example 439] returned a Ki of 1510 pM.
With `CC(C)[C@@H](O)C(=O)N1CC[C@](C)(N2CCc3c(-c4cnc(N)nc4)nc(N4CCOCC4)nc32)C1` [Example 271, (2R)-1-{(3S)-3-[4-(2-aminopyrimidin-5-yl)-2-(morpholin-4-yl)-5,6-dihydro-7H-pyrrolo[2,3-d]pyrimidin-7-yl]-3-methylpyrrolidin-1-yl}-2-hydroxy-3-methylbutan-1-one], the “PI3KA_Act Ki” value worked out at 16 pM.
Same read-out and setting: the value for `CC(C)NC(=O)N1CC[C@@](C)(N2CCc3c(-c4cnc(N)nc4)nc(N4CCOCC4)nc32)C1` [Example 394, (3R)-3-[4-(2-aminopyrimidin-5-yl)-2-(morpholin-4-yl)-5,6-dihydro-7H-pyrrolo[2,3-d]pyrimidin-7-yl]-3-methyl-N-(propan-2-yl)pyrrolidine-1-carboxamide] was 112 pM.
For the molecule `C[C@]1(N2CCc3c(-c4cnc(N)nc4)nc(N4CCOCC4)nc32)CCN(C2CCNC2=O)C1` (stereo partly drawn) [Example 6, (3S)-3-[4-(2-aminopyrimidin-5-yl)-2-(morpholin-4-yl)-5,6-dihydro-7H-pyrrolo[2,3-d]pyrimidin-7-yl]-3-methyl-1,3′-bipyrrolidin-2′-one], the affinity corresponds to a Ki of 96 pM. This counts as picomolar.
The molecule `[2H]C1([2H])OC([2H])([2H])C([2H])([2H])N(c2nc(-c3cnc(N)nc3)c3c(n2)N([C@@]2(C)CCN(C(=O)C(C)(C)NC(=O)OC(C)(C)C)C2)CC3)C1([2H])[2H]` [Example 235] showed a Ki of 693 pM.
With `C[C@]1(N2CCc3c(-c4cnc(N)nc4)nc(N4CCOCC4)nc32)CCN(C(=O)[C@@H]2CC2(F)F)C1` [Example 337, {(3S)-3-[4-(2-aminopyrimidin-5-yl)-2-(morpholin-4-yl)-5,6-dihydro-7H-pyrrolo[2,3-d]pyrimidin-7-yl]-3-methylpyrrolidin-1-yl}[(1S)-2,2-difluorocyclopropyl] methanone], the “PI3KA_Act Ki” value was <18 pM.
As to `C[C@H]1COCCN1c1nc(-c2cnc(N)nc2)c2c(n1)N([C@H]1[C@@H]3CNC[C@@H]31)CC2.Cl` [Example 522, 5-{7-[(1R,5S,6s)-3-azabicyclo[3.1.0]hex-6-yl]-2-[(3S)-3-methylmorpholin-4-yl]-6,7-dihydro-5H-pyrrolo[2,3-d]pyrimidin-4-yl}pyrimidin-2-amine hydrochloride], the “PI3KA_Act Ki” value is 6845 pM.
For the molecule `C[C@@H]1COCCN1c1nc(-c2cnc(N)nc2)c2c(n1)N([C@H]1CCN(S(C)(=O)=O)C1)CC2` [Example 145], the “PI3KA_Act Ki” value came to 4011 pM.
For `CNC(=N)N1CC[C@](C)(N2CCc3c(-c4cnc(N)nc4)nc(N4CCOCC4)nc32)C1` [Example 392, (3S)-3-[4-(2-aminopyrimidin-5-yl)-2-(morpholin-4-yl)-5,6-dihydro-7H-pyrrolo[2,3-d]pyrimidin-7-yl]-N,3-dimethylpyrrolidine-1-carboximidamide], the “PI3KA_Act Ki” value was found to be 101 pM.
The same measure, in the same setting: next, `COC(C)(C)C(=O)N1CC[C@](C)(N2CCc3c(-c4cnc(N)nc4)nc(N4CCOCC4)nc32)C1` [Example 278, 1-{(3S)-3-[4-(2-aminopyrimidin-5-yl)-2-(morpholin-4-yl)-5,6-dihydro-7H-pyrrolo[2,3-d]pyrimidin-7-yl]-3-methylpyrrolidin-1-yl}-2-methoxy-2-methylpropan-1-one]: <18 pM; `CC(C)[C@@H](N)C(=O)N1CC[C@H](N2CCc3c(-c4cnc(N)nc4)nc(N4CCOCC4)nc32)C1.Cl` [Example 287, (2R)-2-amino-1-{(3S)-3-[4-(2-aminopyrimidin-5-yl)-2-(morpholin-4-yl)-5,6-dihydro-7H-pyrrolo[2,3-d]pyrimidin-7-yl]pyrrolidin-1-yl}-3-methylbutan-1-one hydrochloride]: 462 pM.
Turning to `CC[C@@]1(N2CCc3c(-c4cnc(N)nc4)nc(N4CCOCC4)nc32)CCN(C(=O)OC(C)(C)C)C1` [Example 410, tert-butyl (3R)-3-[4-(2-aminopyrimidin-5-yl)-2-(morpholin-4-yl)-5,6-dihydro-7H-pyrrolo[2,3-d]pyrimidin-7-yl]-3-ethylpyrrolidine-1-carboxylate], affinity was put at a Ki of 262 pM.
Regarding `C[C@]1(N2CCc3c(-c4cnc(N)nc4)nc(N4CCOCC4)nc32)CCN(C(=O)[C@]2(F)CCNC2)C1.Cl` [Example 383, {(3S)-3-[4-(2-aminopyrimidin-5-yl)-2-(morpholin-4-yl)-5,6-dihydro-7H-pyrrolo[2,3-d]pyrimidin-7-yl]-3-methylpyrrolidin-1-yl}[(3S)-3-fluoropyrrolidin-3-yl]methanone hydrochloride], the “PI3KA_Act Ki” value was <18 pM.
